# According to patent US8323674B2, “Synergistic biocide composition comprising 2-methylisothiazoline-3-one” (Thor GmbH, priority 2000, dated 2012):
# Key:
# Assay type in all cases: cell-based
# [1] = system: Pseudomonas aeruginosa; experiment: MIC and synergistic index of MIT + PMG in Müller-Hinton broth, 48 h/25° C.; conditions: for MIC value: only one biocide employed
# Description: (§1) The synergistic index is calculated by the method of F. C. Kull et al., Applied Microbiology, vol. 9 (1961), p. 538. Here, the synergistic index is calculated using the following formula: Synergistic index SI=Qa/QA+Qb/QB.
# (§2) If the synergistic index has a value of above 1, this means that antagonism is present. If the synergistic index assumes a value of 1, this means that an additive effect of the two biocides exists. If the synergistic index assumes a value of less than 1, this means that synergism of the two biocides exists.
# Again, the experimental batches contained a Müller-Hinton broth as the nutrient medium. The cell density was 10^6 cells/ml. The incubation time was 48 hours at 25° C. Each sample was incubated in a shaker-incubator at 120 rpm.
# [2] = system: Pseudomonas aeruginosa; experiment: MIC and synergistic index of MIT + ZnPy in Müller-Hinton broth, 72 h/25° C.; conditions: for MIC value: only one biocide employed
# Description: as §1, §2
# (§3) Again, the experimental batches contained a Müller-Hinton broth as the nutrient medium. The cell density was 10^6 cells/ml. The incubation time was 72 hours at 25° C. Each sample was incubated in a shaker-incubator at 120 rpm.
# [3] = system: Pseudomonas aeruginosa; experiment: MIC and synergistic index of MIT + BNP in Müller-Hinton broth, 72 h/25° C.; conditions: for MIC: Pseudomonas aeruginosa
# Description: as §1, §2, §3
# [4] = system: Pseudomonas aeruginosa; experiment: MIC and synergistic index of MIT + BAC in Müller-Hinton broth, 48 h/25° C.; conditions: for MIC value: biocide used alone
# Description: as §1, §2
# Again, the experimental batches contained a Müller-Hinton broth as nutrient medium. The cell density was 10^6 microorganisms/ml. The incubation time was 48 hours at 25° C. Each sample was incubated in a shaker-incubator at 120 rpm.
# [5] = system: Pseudomonas aeruginosa; experiment: MIC and synergistic index of MIT + HCHO in Müller-Hinton broth, 96 h/25° C.; conditions: for Synergistic index Qa/QA + Qb/QB: method of Kull; for MIC: Pseudomonas aeruginosa
# Description: In addition to the biocide component and water, the aqueous mixtures also comprised a nutrient medium, viz. a commercially available Müller-Hinton broth. The cell density was 10^6 cells/ml. The incubation time was 96 hours at 25° C. Each sample was incubated in a shaker-incubator at 120 rpm.
# as §1, §2
# [6] = system: Pseudomonas aeruginosa; experiment: MIC and synergistic index of MIT + OPP in Müller-Hinton broth, 72 h/25° C.; conditions: for MIC: Pseudomonas aeruginosa, 72 h
# Description: as §1, §2, §3
# [7] = system: Pseudomonas aeruginosa; experiment: MIC and synergistic index of MIT + NaPy in Müller-Hinton broth, 96 h/25° C.; conditions: for MIC value: only one biocide employed
# Description: as §1, §2
# Again, the experimental batches contained a Müller-Hinton broth as the nutrient medium. The cell density was 10^6 cells/ml. The incubation time was 96 hours at 25° C. Each sample was incubated in a shaker-incubator at 120 rpm.
# [8] = system: Pseudomonas aeruginosa; experiment: MIC and synergistic index of MIT + BBIT in Müller-Hinton broth, 72 h/25° C.; conditions: for Synergistic index Qa/QA + Qb/QB: BBIT MIC of 500 ppm used as basis; for MIC value: only one biocide employed
# Description: as §1, §2, §3
# [9] = system: Pseudomonas aeruginosa; experiment: MIC and synergistic index of MIT + HMBIT in Müller-Hinton broth, 48 h/30° C.; conditions: for MIC value: biocide used alone, 48 hours at 30° C.
# Description: as §1, §2
# Again, the experimental batches contained a Müller-Hinton broth as nutrient medium. The cell density was 10^6 microorganisms/ml. […] Each sample was incubated in a shaker-incubator at 120 rpm.
# [10] = Pseudomonas aeruginosa, incubation 48 h/25° C.
molecule,measurement,setting,value
polyhexamethylenebiguanide [PMG],MIC at PMG concentration Qb,[1],30 ppm
same,MIC at Total concentration MIT + PMG Qa + Qb,[1],30 ppm
same,Qb/QB,[1],1.00
same,Synergistic index Qa/QA + Qb/QB,[1],1.00
same,MIC value,[1],30 ppm
zinc pyrithione [ZnPy],MIC at Total concentration MIT + ZnPy Qa + Qb,[2]; 72 h/25° C.,100 ppm
same,Qb/QB,"[2]; 72 h/25° C., QB = 100 ppm used as basis",1.00
same,Synergistic index Qa/QA + Qb/QB,"[2]; 72 h/25° C., ZnPy MIC of 100 ppm used as basis",1.00
same,MIC at ZnPy concentration Qb,"[2]; 72 h/25° C., for ZnPy alone 100 ppm used as the basis for the calculation",100 ppm
same,MIC value,[2]; 72 h/25° C.,over 100 ppm
"O=[N+]([O-])C(Br)(CO)CO [BNP, 2-bromo-2-nitro-1,3-propanediol]",Qb/QB,[3],1.00
same,Synergistic index Qa/QA + Qb/QB,[3],1.00
same,MIC,"[3]; only one biocide employed, read-out: MIC value",20 µg/mL
same,MIC,[3]; read-out: MIC at BNP concentration Qb,20 µg/mL
same,MIC,[3]; read-out: MIC at Total concentration of MIT + BNP Qa + Qb,20 µg/mL
dimethylbenzylalkonium chloride [BAC],Qb/QB,"[4]; BAC concentration in mixture at MIC / MIC of BAC alone (80 ppm), 48 h/25° C.",1.00
same,MIC at BAC concentration Qb,"[4]; BAC share of the MIC of the MIT + BAC mixture, Pseudomonas aeruginosa, incubation 48 h/25° C.",80 ppm
same,MIC at Total concentration MIT + BAC Qa + Qb,[4]; [10],80 ppm
same,Synergistic index Qa/QA + Qb/QB,[4]; [10],1.00
same,MIC value,[4]; 48 h/25° C.,80 ppm
"Cn1sccc1=O [MIT, 2-methylisothiazolin-3-one]",MIC at MIT concentration Qa,[5],60 ppm
same,MIC at Total concentration of MIT + HCHO Qa + Qb,[5],60 ppm
same,Qa/QA,[5],1.00
same,Synergistic index Qa/QA + Qb/QB,[5],1.00
same,MIC value,[5]; only one biocide used,60 ppm
same,MIC at MIT concentration Qa,[3],40 ppm
same,MIC at Total concentration of MIT + BNP Qa + Qb,[3],40 ppm
same,Qa/QA,[3],1.00
same,Synergistic index Qa/QA + Qb/QB,[3],1.00
same,MIC value,[3]; only one biocide employed,40 ppm
same,MIC at MIT concentration Qa,[1],40 ppm
same,MIC at Total concentration MIT + PMG Qa + Qb,[1],40 ppm
same,Qa/QA,[1],1.00
same,Synergistic index Qa/QA + Qb/QB,[1],1.00
same,MIC value,[1],40 ppm
same,MIC at MIT concentration Qa,[6]; 72 h/25° C.,40 ppm
same,MIC at Total concentration MIT + OPP Qa + Qb,[6]; 72 h/25° C.,40 ppm
same,Qa/QA,[6]; 72 h/25° C.,1.00
same,Synergistic index Qa/QA + Qb/QB,[6]; 72 h/25° C.,1.00
same,MIC value,"[6]; only one biocide employed, 72 h/25° C.",40 ppm
same,Synergistic index Qa/QA + Qb/QB,[2],1.00
same,MIC at MIT concentration Qa,[2]; 72 h/25° C.,40 ppm
same,MIC at Total concentration MIT + ZnPy Qa + Qb,[2]; 72 h/25° C.,40 ppm
same,Qa/QA,[2]; 72 h/25° C.,1.00
same,MIC value,[2]; 72 h/25° C.,40 ppm
same,MIC at MIT concentration Qa,[7],60 ppm
same,MIC at Total concentration MIT + NaPy Qa + Qb,[7],60 ppm
same,Qa/QA,[7],1.00
same,Synergistic index Qa/QA + Qb/QB,[7],1.00
same,MIC value,[7],60 ppm
same,MIC at MIT concentration Qa,[8],40 ppm
same,MIC at Total concentration MIT + BBIT Qa + Qb,[8],40 ppm
same,Qa/QA,[8],1.00
same,Synergistic index Qa/QA + Qb/QB,[8],1.00
same,MIC value,[8],40 ppm
same,MIC at MIT concentration Qa,[9],50 ppm
same,MIC at Total concentration MIT + HMBIT Qa + Qb,[9],50 ppm
same,Qa/QA,[9],1.00
same,Synergistic index Qa/QA + Qb/QB,[9],1.00
same,MIC value,[9],50 ppm
same,Qa/QA,"[4]; MIT concentration in mixture at MIC / MIC of MIT alone (40 ppm), 48 h/25° C.",1.00
same,MIC at MIT concentration Qa,"[4]; MIT share of the MIC of the MIT + BAC mixture, Pseudomonas aeruginosa, incubation 48 h/25° C.",40 ppm
same,MIC at Total concentration MIT + BAC Qa + Qb,[4]; [10],40 ppm
same,Synergistic index Qa/QA + Qb/QB,[4]; [10],1.00
same,MIC value,[4]; 48 h/25° C.,40 ppm
"CCCCn1sc2ccccc2c1=O [BBIT, N-butyl-1,2-benzoisothiazolin-3-one]",MIC at Total concentration MIT + BBIT Qa + Qb,[8],500 ppm
same,Synergistic index Qa/QA + Qb/QB,[8],1.00
same,Qb/QB,[8]; QB = 500 ppm used as basis,1.00
same,MIC at BBIT concentration Qb,[8]; for BBIT alone 500 ppm used as the basis for the calculation,500 ppm
same,MIC value,[8],over 500 ppm
"N-hydroxymethyl-1,2-benzoisothiazolin-3-one [HMBIT]",MIC at HMBIT concentration Qb,[9],150 ppm
same,MIC at Total concentration MIT + HMBIT Qa + Qb,[9],150 ppm
same,Qb/QB,[9],1.00
same,Synergistic index Qa/QA + Qb/QB,[9],1.00
same,MIC value,[9],150 ppm
"C=O [HCHO, formaldehyde]",Qb/QB,[5],1.00
same,MIC,"[5]; only one biocide used, read-out: MIC value",100 µg/mL
same,MIC,[5]; read-out: MIC at HCHO concentration Qb,100 µg/mL
same,MIC,[5]; read-out: MIC at Total concentration of MIT + HCHO Qa + Qb,100 µg/mL
same,Synergistic index Qa/QA + Qb/QB,[5],1.00
"[Na+].[O-][n+]1ccccc1[S-] [NaPy, sodium pyrithione]",MIC at NaPy concentration Qb,[7],200 ppm
same,MIC at Total concentration MIT + NaPy Qa + Qb,[7],200 ppm
same,Qb/QB,[7],1.00
same,Synergistic index Qa/QA + Qb/QB,[7],1.00
same,MIC value,[7],200 ppm
"Oc1ccccc1-c1ccccc1 [OPP, o-phenylphenol]",Qb/QB,[6]; 72 h/25° C.,1.00
same,Synergistic index Qa/QA + Qb/QB,[6]; 72 h/25° C.,1.00
same,MIC,[6]; read-out: MIC at OPP concentration Qb,750 µg/mL
same,MIC,[6]; read-out: MIC at Total concentration MIT + OPP Qa + Qb,750 µg/mL
same,MIC,[6]; read-out: MIC value,750 µg/mL
